Results as given in ChEMBL document CHEMBL1152560, “Substituted 2-arylbenzothiazoles as kinase inhibitors: hit-to-lead optimization” (Bioorg Med Chem, 2009).

Experiments:
[1] = tested on: Epidermal growth factor receptor (Homo sapiens), P00533 [L858R,T790M]; assay: Residual activity of EGFR T790M/L858R at 1 uM by microplate scintillation counting
[2] = biological target: Mitogen-activated protein kinase 10 (Homo sapiens) (UniProt P53779); assay: Residual activity of JNK3 at 0.1 uM by microplate scintillation counting
[3] = tested on: Mast/stem cell growth factor receptor Kit (Homo sapiens), P10721 [T670I]; assay: Residual activity of KIT T670I mutant at 0.1 uM by microplate scintillation counting
[4] = biological target: T1, Inhibitor of nuclear factor kappa-B kinase subunit epsilon (Homo sapiens) (UniProt Q14164); assay: Residual activity of IKKepsilon at 1 uM by microplate scintillation counting
T1 sequence (whole entry): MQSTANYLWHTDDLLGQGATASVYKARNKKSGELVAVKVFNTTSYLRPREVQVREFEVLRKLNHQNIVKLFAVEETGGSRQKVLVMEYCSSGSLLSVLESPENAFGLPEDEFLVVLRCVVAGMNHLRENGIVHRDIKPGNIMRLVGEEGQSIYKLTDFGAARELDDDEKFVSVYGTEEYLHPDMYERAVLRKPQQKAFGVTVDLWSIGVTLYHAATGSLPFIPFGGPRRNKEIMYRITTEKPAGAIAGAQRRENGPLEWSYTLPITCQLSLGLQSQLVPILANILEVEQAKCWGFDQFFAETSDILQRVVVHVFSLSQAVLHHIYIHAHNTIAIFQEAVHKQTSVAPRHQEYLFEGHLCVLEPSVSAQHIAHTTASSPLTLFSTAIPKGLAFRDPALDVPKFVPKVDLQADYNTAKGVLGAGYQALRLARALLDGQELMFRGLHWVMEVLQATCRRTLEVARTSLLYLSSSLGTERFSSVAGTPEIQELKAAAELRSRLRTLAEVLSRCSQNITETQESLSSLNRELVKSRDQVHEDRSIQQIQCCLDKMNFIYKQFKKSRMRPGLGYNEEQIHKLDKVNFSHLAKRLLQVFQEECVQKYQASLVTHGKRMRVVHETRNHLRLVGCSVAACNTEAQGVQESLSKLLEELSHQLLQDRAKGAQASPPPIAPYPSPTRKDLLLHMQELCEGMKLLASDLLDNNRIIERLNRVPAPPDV

[5] = tested on: Mast/stem cell growth factor receptor Kit (Homo sapiens), P10721 [T670I]; assay: Residual activity of KIT T670I mutant at 1 uM by microplate scintillation counting
[6] = biological target: SRSF protein kinase 3 (Homo sapiens) (UniProt Q9UPE1); assay: Residual activity of STK23 at 1 uM by microplate scintillation counting
[7] = biological target: Epidermal growth factor receptor (Homo sapiens, UniProt P00533); assay: Residual activity of wild type EGF-R at 10 uM by microplate scintillation counting
[8] = biological target: Ephrin type-A receptor 7 (Homo sapiens) (UniProt Q15375); assay: Residual activity of EPHA7 at 10 uM by microplate scintillation counting
[9] = biological target: LIM domain kinase 1 (Homo sapiens) (UniProt P53667); assay: Residual activity of LIMK1 at 10 uM by microplate scintillation counting
[10] = biological target: Serine/threonine-protein kinase WNK2 (Homo sapiens) (UniProt Q9Y3S1); assay: Residual activity of WNK2 at 0.1 uM by microplate scintillation counting
[11] = tested on: Serine/threonine-protein kinase B-raf (Homo sapiens), P15056 [V600E]; assay: Residual activity of B-RAF V600E mutant at 10 uM by microplate scintillation counting
[12] = biological target: Calcium/calmodulin-dependent protein kinase type II subunit delta (Homo sapiens) (UniProt Q13557); assay: Residual activity of CAMK2D at 10 uM by microplate scintillation counting
[13] = biological target: Calcium/calmodulin-dependent protein kinase kinase 2 (Homo sapiens) (UniProt Q96RR4); assay: Residual activity of CAMKK2 at 1 uM by microplate scintillation counting
[14] = biological target: Calcium/calmodulin-dependent protein kinase type II subunit delta (Homo sapiens) (UniProt Q13557); assay: Residual activity of CAMK2D at 0.1 uM by microplate scintillation counting
[15] = biological target: Cyclin-dependent kinase 2/cyclin E1 (Homo sapiens) (UniProt P24864+P24941); assay: Residual activity of CDK2/Cyclin E at 0.1uM by microplate scintillation counting; type: protein-complex assay
[16] = biological target: CDK3/cyclin E (Homo sapiens) (UniProt P24864+O96020+Q00526); assay: Residual activity of CDK3/Cyclin E at 0.1 uM by microplate scintillation counting; type: protein-complex assay
[17] = biological target: CDK4/Cyclin D3 (Homo sapiens) (UniProt P11802+P30281); assay: Residual activity of CDK4/Cyclin D3 at 0.1 uM by microplate scintillation counting; type: protein-complex assay
[18] = biological target: T2, Serine/threonine-protein kinase D2 (Homo sapiens) (UniProt Q9BZL6); assay: Residual activity of PRKD2 at 10 uM by microplate scintillation counting
T2 sequence (whole entry): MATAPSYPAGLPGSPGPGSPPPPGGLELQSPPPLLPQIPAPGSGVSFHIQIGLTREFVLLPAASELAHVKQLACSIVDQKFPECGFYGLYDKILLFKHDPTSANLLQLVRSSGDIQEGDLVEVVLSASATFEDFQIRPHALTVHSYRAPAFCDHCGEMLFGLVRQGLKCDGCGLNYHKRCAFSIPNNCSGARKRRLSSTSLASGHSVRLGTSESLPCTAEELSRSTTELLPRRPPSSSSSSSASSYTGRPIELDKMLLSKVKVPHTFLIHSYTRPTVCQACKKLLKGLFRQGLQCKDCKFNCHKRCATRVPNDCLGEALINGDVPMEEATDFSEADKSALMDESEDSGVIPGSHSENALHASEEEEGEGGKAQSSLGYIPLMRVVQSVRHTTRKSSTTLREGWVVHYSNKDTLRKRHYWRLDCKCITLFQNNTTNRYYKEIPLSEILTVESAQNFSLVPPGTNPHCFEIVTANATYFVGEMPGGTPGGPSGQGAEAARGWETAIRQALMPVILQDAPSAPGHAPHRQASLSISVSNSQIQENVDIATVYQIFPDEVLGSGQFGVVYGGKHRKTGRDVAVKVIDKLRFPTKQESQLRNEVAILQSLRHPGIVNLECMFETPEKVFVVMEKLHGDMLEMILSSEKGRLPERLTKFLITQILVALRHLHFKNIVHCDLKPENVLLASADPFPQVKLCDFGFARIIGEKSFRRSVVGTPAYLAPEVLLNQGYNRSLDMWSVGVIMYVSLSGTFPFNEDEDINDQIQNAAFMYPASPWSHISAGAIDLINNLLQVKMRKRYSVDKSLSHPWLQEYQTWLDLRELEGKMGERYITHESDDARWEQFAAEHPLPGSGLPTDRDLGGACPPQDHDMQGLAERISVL

Chain of Serine/threonine-protein kinase B-raf (Homo sapiens), P15056 [V600E] (P15056 whole entry V600E): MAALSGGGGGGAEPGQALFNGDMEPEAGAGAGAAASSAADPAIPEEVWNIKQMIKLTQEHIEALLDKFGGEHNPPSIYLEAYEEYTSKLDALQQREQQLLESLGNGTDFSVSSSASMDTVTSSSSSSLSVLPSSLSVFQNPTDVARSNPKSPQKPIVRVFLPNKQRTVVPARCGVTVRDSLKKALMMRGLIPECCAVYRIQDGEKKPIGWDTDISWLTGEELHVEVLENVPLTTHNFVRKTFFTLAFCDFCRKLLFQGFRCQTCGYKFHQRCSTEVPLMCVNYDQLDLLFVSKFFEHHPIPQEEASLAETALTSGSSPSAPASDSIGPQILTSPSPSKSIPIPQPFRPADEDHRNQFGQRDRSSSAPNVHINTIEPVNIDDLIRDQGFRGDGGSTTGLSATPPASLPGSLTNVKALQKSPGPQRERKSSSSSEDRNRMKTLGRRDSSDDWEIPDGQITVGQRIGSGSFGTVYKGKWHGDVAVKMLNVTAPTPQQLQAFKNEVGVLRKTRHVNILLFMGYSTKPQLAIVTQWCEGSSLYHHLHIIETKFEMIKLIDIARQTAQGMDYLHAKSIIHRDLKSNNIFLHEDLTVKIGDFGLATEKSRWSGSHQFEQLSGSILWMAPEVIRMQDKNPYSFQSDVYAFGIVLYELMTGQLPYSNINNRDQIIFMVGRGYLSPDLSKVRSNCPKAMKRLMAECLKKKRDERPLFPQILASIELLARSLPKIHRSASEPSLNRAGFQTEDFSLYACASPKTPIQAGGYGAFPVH
Chain of Serine/threonine-protein kinase WNK2 (Homo sapiens) (Q9Y3S1 whole entry): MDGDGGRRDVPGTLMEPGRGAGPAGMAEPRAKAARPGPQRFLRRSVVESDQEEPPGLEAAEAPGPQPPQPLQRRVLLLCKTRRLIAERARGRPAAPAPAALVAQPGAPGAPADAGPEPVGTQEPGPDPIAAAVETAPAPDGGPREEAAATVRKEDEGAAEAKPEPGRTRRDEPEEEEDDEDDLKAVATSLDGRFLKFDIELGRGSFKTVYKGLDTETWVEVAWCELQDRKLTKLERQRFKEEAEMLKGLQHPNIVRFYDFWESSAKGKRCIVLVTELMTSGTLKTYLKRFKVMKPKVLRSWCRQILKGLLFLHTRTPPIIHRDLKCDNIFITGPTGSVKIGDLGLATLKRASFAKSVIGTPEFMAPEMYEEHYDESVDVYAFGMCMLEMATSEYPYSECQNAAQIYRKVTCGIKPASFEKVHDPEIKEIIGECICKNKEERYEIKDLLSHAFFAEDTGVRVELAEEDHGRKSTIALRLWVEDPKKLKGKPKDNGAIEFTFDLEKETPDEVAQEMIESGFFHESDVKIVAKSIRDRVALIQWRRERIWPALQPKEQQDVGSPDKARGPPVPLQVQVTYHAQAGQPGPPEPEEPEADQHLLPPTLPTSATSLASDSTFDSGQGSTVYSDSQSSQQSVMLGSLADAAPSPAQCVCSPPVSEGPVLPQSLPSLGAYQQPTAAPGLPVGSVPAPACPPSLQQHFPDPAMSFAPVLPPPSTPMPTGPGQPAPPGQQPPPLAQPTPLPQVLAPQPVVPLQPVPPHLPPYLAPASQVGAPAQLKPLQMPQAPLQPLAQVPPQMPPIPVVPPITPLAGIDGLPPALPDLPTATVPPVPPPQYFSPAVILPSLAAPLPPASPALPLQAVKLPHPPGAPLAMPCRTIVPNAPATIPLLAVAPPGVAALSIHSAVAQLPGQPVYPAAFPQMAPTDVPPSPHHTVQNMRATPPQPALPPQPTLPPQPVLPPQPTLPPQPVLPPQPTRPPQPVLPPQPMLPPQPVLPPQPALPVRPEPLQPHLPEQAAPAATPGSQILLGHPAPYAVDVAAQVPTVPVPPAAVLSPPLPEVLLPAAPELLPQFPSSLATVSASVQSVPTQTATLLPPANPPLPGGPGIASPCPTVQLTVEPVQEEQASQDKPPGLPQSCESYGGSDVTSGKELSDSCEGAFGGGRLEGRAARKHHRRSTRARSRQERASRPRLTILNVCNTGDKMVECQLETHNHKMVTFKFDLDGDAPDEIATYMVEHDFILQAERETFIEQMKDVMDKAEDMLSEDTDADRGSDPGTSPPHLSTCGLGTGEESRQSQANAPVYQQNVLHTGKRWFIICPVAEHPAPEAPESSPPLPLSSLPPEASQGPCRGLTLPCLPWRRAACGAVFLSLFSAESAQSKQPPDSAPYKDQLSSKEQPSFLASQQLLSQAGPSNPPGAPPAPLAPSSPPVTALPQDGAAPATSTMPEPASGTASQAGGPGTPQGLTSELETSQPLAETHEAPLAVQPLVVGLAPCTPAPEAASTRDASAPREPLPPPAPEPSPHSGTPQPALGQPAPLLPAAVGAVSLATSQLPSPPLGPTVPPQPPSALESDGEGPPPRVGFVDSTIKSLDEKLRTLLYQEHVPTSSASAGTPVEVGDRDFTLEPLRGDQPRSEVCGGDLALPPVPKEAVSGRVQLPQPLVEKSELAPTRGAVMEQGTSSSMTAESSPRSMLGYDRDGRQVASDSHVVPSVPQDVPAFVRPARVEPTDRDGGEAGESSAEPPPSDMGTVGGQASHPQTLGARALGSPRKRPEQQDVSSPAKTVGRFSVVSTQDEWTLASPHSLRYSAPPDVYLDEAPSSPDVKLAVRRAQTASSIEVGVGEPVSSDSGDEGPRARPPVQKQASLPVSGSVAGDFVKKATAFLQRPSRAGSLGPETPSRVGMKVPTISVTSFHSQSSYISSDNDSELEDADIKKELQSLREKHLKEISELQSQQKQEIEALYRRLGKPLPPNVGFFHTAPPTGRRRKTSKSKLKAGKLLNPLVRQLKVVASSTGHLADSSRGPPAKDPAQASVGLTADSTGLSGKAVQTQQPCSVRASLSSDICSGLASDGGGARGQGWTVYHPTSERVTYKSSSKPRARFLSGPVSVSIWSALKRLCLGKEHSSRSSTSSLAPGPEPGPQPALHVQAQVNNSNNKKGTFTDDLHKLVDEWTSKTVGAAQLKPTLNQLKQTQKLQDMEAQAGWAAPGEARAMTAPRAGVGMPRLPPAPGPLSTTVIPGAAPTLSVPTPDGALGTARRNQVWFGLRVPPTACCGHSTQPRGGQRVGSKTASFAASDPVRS
Chain of Calcium/calmodulin-dependent protein kinase kinase 2 (Homo sapiens) (Q96RR4 2-588 limits assumed): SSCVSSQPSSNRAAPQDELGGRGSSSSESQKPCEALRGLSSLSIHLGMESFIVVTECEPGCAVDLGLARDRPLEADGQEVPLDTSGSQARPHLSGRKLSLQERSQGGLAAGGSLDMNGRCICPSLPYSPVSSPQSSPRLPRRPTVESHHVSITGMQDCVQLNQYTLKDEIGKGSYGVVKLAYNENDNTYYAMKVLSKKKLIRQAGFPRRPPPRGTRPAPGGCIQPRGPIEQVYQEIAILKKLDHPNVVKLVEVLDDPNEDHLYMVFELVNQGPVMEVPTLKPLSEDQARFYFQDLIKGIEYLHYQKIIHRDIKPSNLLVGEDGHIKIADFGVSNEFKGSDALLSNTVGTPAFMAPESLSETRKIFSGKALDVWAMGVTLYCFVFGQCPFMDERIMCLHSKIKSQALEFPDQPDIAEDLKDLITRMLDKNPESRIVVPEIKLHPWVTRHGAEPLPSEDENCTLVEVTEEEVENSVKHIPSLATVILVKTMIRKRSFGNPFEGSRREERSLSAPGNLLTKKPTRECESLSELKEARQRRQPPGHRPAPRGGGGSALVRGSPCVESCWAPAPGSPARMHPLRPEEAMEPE
Chain of SRSF protein kinase 3 (Homo sapiens) (Q9UPE1 whole entry): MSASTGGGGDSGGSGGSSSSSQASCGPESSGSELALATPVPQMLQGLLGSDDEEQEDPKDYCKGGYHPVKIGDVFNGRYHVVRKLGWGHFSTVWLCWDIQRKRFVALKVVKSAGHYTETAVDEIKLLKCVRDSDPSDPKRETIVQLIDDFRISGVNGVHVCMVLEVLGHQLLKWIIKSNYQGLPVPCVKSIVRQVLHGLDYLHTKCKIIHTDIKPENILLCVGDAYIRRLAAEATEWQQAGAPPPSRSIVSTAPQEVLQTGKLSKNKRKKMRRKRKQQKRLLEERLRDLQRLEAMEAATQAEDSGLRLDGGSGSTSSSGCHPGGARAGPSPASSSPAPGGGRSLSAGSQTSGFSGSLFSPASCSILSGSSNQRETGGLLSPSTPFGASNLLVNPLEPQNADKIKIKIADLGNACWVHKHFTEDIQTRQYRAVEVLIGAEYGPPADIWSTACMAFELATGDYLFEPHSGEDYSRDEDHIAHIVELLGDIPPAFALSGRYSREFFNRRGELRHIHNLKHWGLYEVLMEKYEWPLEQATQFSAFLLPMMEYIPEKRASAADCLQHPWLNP
Chain of Calcium/calmodulin-dependent protein kinase type II subunit delta (Homo sapiens) (Q13557 whole entry): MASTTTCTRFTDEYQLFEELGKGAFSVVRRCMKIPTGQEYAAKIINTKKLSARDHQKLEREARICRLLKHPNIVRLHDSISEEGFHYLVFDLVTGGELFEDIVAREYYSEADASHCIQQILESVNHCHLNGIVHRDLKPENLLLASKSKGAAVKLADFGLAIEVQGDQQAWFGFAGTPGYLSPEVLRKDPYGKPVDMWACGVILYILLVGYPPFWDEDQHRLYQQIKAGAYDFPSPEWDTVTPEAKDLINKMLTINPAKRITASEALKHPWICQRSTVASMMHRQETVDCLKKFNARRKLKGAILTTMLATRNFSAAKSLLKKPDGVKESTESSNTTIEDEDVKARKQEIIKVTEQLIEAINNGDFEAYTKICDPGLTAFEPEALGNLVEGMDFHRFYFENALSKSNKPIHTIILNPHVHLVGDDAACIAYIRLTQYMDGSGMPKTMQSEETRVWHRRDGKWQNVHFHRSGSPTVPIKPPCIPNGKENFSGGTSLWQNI

**Q.** What does the source list for COc1cc2c(Oc3ccc(-c4nc5ccccc5s4)cc3)ncnc2cc1OCCCN1CCN(C)CC1?
**A.** residual activity [1]: 103%; residual activity [2]: 113%; residual activity [3]: 103%; residual activity [4]: 90%; residual activity [5]: 73%; residual activity [6]: 95%; residual activity [7]: 52%; residual activity [8]: 116%; residual activity [9]: 89%; residual activity [10]: 74%; residual activity [11]: 57%; residual activity [12]: 28%; residual activity [13]: 91%; residual activity [14]: 92%; residual activity [15]: 86%; residual activity [16]: 86%; residual activity [17]: 98%; residual activity [18]: 146%

**Q.** How did the residual activity [1] turn out when COc1cc2c(Oc3ccc(-c4nc5ccccc5s4)cc3F)ncnc2cc1OCCCN1CCN(C)CC1 was run?
**A.** The residual activity was 99%.

**Q.** And the residual activity [2]?
**A.** Its residual activity is 87%.

**Q.** And the residual activity [3]?
**A.** Its residual activity is 97%.

**Q.** And the residual activity [4]?
**A.** Its residual activity is 81%.

**Q.** What about the residual activity [5] of the same compound?
**A.** The residual activity was 65%.

**Q.** And the residual activity [6]?
**A.** Its residual activity is 87%.

**Q.** And the residual activity [7]?
**A.** The residual activity was 48%.

**Q.** What about the residual activity [8] of the same compound?
**A.** Its residual activity is 49%.

**Q.** What about the residual activity [9] of the same compound?
**A.** Its residual activity is 95%.

**Q.** And the residual activity [10]?
**A.** Its residual activity is 87%.

**Q.** And the residual activity [11]?
**A.** The residual activity was 81%.

**Q.** What about the residual activity [12] of the same compound?
**A.** The residual activity was 44%.

**Q.** What about the residual activity [13] of the same compound?
**A.** Its residual activity is 90%.

**Q.** And the residual activity [14]?
**A.** Its residual activity is 105%.

**Q.** And the residual activity [15]?
**A.** The residual activity was 92%.

**Q.** And the residual activity [16]?
**A.** Its residual activity is 98%.

**Q.** And the residual activity [17]?
**A.** The residual activity was 82%.

**Q.** And the residual activity [18]?
**A.** The residual activity was 128%.

**Q.** For COc1cc2c(Oc3ccc(-c4nc5ccccc5s4)cc3)ncnc2cc1OCCCN1CCCC1, which residual activity [1] is on record?
**A.** Its residual activity is 100%.

**Q.** What about the residual activity [2] of the same compound?
**A.** The residual activity was 100%.

**Q.** And the residual activity [3]?
**A.** The residual activity was 113%.

**Q.** And the residual activity [4]?
**A.** Its residual activity is 98%.

**Q.** What about the residual activity [5] of the same compound?
**A.** The residual activity was 73%.

**Q.** What about the residual activity [6] of the same compound?
**A.** The residual activity was 83%.

**Q.** What about the residual activity [7] of the same compound?
**A.** The residual activity was 67%.

**Q.** And the residual activity [8]?
**A.** The residual activity was 108%.

**Q.** And the residual activity [9]?
**A.** The residual activity was 96%.

**Q.** What about the residual activity [10] of the same compound?
**A.** The residual activity was 81%.

**Q.** And the residual activity [11]?
**A.** The residual activity was 58%.

**Q.** What about the residual activity [12] of the same compound?
**A.** Its residual activity is 13%.

**Q.** What about the residual activity [13] of the same compound?
**A.** The residual activity was 85%.

**Q.** And the residual activity [14]?
**A.** The residual activity was 87%.

**Q.** What about the residual activity [15] of the same compound?
**A.** Its residual activity is 93%.

**Q.** What about the residual activity [16] of the same compound?
**A.** Its residual activity is 90%.

**Q.** What about the residual activity [17] of the same compound?
**A.** Its residual activity is 80%.

**Q.** What about the residual activity [18] of the same compound?
**A.** The residual activity was 136%.
